Series [1] can be described thus: n-octanol/water partition coefficient (Kp). It is filed as physicochemical. As to the method:
Free tempamine gives well-defined peaks in both solutions of n-octanol and water. The peak area (or height) is proportional to the tempamine concentrations in the aqueous phase and in n-octanol. The tempaamine concentration in both solvents was determined from a calibration curve of temparnine in each of the two solvents n-octanol and water.
A. Partition Coefficients The n-octanol/water partition coefficient, Kp, of tempamine was measured to estimate its phase distribution in the liposomes, according to the procedure previously described (Samuni, A. et al., Free-Radic Biol Med., 22:1165 (1997)). Partition coefficients were measured at various pH levels (pH 4.0, 7.0, and 10.6), at tempamine concentrations of 2.0 mM and 20.0 mM and at different concentrations of ammonium sulfate (20-400 mM). The volume of each phase was 1 ml.

Series [2] deals with M-109S (doxorubicin-sensitive human breast carcinoma). Nature of the series: Cytotoxicity assay (methylene blue); tempamine alone or doxorubicin plus tempamine. It is filed as cell-based. To be noted: Homo sapiens, read-out: IC50 (cytotoxicity). As for the experimental part: As described in Example 1, the cytotoxicity of tempamine was determined on three cell lines, MCF-7 (human breast adenocarcinoma), M-109S (doxorubicin-sensitive human breast carcinoma), and M-109R (doxorubicin-resistant human breast carcinoma). The effect of free tempamine on cell proliferation was determined by a methylene blue assay as described in Example 1B.
In yet another aspect, the invention contemplates administration of tempamine in combination with chemotherapeutic agent. […] Doxorubicin was chosen as a model chemotherpeutic agent. The enhancement of doxorubicin cytotoxicity by tempamine was tested on three cell lines, as described in Example 1A. A cytotoxicity assay as described in Example 1B was used. Two of the cell lines, MCF-7 and M-109S, were doxorubicin-sensitive lines and one cell line, M-109R, was doxorubicin resistant. MCF-7 cells are more sensitive to tempamine (100 μM caused 75% growth inhibition), but are less sensitive to doxorubicin, than are M-109S cells.
MCF-7 (human breast adenocarcinoma), M-109S (doxorubicin-sensitive human breast carcinoma), and M-109R (doxorubicin-resistant human breast carcinoma) were maintained in RPMI medium (Biological Industries, Beit HaEmek, Israel) supplemented with 10% fetal calf serum (FCS). The cell lines were maintained under standard culture conditions at 37° C. in a humidified 5% CO2 atmosphere.
The effect of tempamine on cell proliferation was determined by the methylene blue assay (Horowitz, A. T., et al., Biochim BiophysActa. 1109:203, (1992)). Briefly, cells were seeded onto 96-well plates (MCF cells at a density of 6×10^3 cells per well, and M-109S and M-109R at a density of 1.5×10^3 cells per well) and allowed to grow for 24 hours prior to treatment with different concentrations of tempamine. After the addition of tempamine (5×10^−5 to 4×10^−4), the cells were incubated in RPMI +10% FCS for four days without change of medium. Then the cells were fixed with 2.5% glutaraldehyde, stained with methylene blue and assayed spectrophotometrically.

For series [3], the system named is MCF-7 cancer cells. In words: Apoptosis detection by merocyanine-540 staining and flow cytometry. It is filed as cell-based, human. To be noted: MCF-7, 1 mM tempamine, 24 hours; 14% without treatment. The text has this: In another study, the MCF-7 cell line was used to investigate the mechanism of growth inhibition by tempamine. Untreated cells and tempamine-treated cells (24-hours exposure) were contacted with merocyanine-540. Merocyanine-540 binds selectively to phophatidylserine, which appears at the external surface of the cell at the beginning of apoptosis and is therefore one of the apoptotic markers (Reid, S., et al., J. lmmnol. Methods 192:43 (1996)). After interaction with merocyanine-540, cells were analyzed by flow cytometry as described in the methods section below. […] After the 24 hour treatment period, the cells were trypsinized, stained with merocyanine-540 and analyzed by flow cytometry. […]
Apoptosis was assessed by flow cytometry (FACScan). 1×10^6 cells were removed from culture, washed with PBS, and stained with merocyanine-540 (Reid, S., et al., J. Immunol. Methods 192:43 (1996). Briefly, the cell pellet was resuspended in 500 μl PBS. 2.5 μl of a 1 mg/ml solution of merocyanine-540 was added to the cells, incubated for 2 min at room temperature in the dark. The cells were washed, resuspended in 1 ml PBS, and run immediately on a fluorescence-activated cell-sorting flow cytometer (Vantage, Becton Dickinson, Rutherford, N.J., USA).

[4] abbreviates: ammonium sulfate 20 mM, TMN 2 μmole.
Where [5] appears, read: ammonium sulfate 20 mM, TMN 20 μmole.
Setting [6] is: ammonium sulfate 150 mM, TMN 2 μmole.
[7] abbreviates: ammonium sulfate 150 mM, TMN 20 μmole.
Where [8] appears, read: ammonium sulfate 400 mM, TMN 2 μmole.
[9] abbreviates: ammonium sulfate 400 mM, TMN 20 μmole.

Molecules are shown by their SMILES.

Take `CC1(C)CC(N)CC(C)(C)N1[O]` [tempamine, 2,2,6,6-tetramethylpiperidine-4-amino-1-oxyl]: the “n-octanol/aqueous phase (Kp), pH 7” value is 0.278 in series [1] (ammonium sulfate 0 mM, TMN 20 μmole); 0.048 in series [1] (setting [4]); 0.116 in series [1] (setting [5]); 0.055 in series [1] (setting [6]); 0.038 in series [1] (setting [7]); 0.040 in series [1] (setting [8]). Moreover, the “n-octanol/aqueous phase (Kp), pH 7” value in series [1] (setting [9]) was 0.034. For the same compound, the “n-octanol/aqueous phase (Kp), pH 4” value is given as 0.031 in series [1] (setting [4]); 0.074 in series [1] (setting [5]); 0.024 in series [1] (setting [6]); 0.049 in series [1] (setting [7]); 0.028 in series [1] (setting [8]); 0.046 in series [1] (setting [9]). In addition, the “n-octanol/aqueous phase (Kp), pH 10.6” value is 2.418 in series [1] (setting [4]); 2.386 in series [1] (setting [5]); 2.184 in series [1] (setting [6]); 3.969 in series [1] (setting [7]); 3.005 in series [1] (setting [8]); 4.569 in series [1] (setting [9]). In addition, in series [2], the IC50 was around 700 µM. Further, in series [3], the “fluorescently labeled (apoptotic) cells” value was 77%.

Source of the values: patent US20040219201A1, “Tempamine compositions and methods of use” (priority 2001, published 2004).
